Data: patent US20260324639A1, “MICROBIOCIDAL PYRAZOLE DERIVATIVES” (SYNGENTA CROP PROTECTION AG, priority 2022, published 2026)

Tests used:
[1] = test system: Mycosphaerella graminicola; assay: Mycosphaerella graminicola (Septoria tritici)/liquid culture (Septoria blotch); assay type: cell-based; conditions: Zymoseptoria tritici, liquid culture, PDB, 24° C., growth inhibition photometric 4-5 days after application, read-out: control of Mycosphaerella graminicola compared to untreated control
Method: (§1) Conidia of the fungus from cryogenic storage are directly mixed into nutrient broth (PDB potato dextrose broth). After placing a (DMSO) solution of test compound into a microtiter plate (96-well format), the nutrient broth containing the fungal spores is added. The test plates are incubated at 24° C. and the inhibition of growth is determined photometrically 4-5 days after application.

Monographella nivalis = Monographella nivalis (Microdochium nivale)/liquid culture (foot rot cereals); assay type: cell-based; conditions: liquid culture, PDB, 24° C., growth inhibition photometric 4-5 days after application, read-out: control of Monographella nivalis compared to untreated control
Method: as §1

Mycosphaerella arachidis = Mycosphaerella arachidis (Cercospora arachidicola)/liquid culture (early leaf spot); assay type: cell-based; conditions: liquid culture, PDB, 24° C., growth inhibition photometric 4-5 days after application, read-out: control of Mycosphaerella arachidis compared to untreated control
Method: as §1

Pyrenophora teres = assay: Pyrenophora teres/barley/leaf disc preventative (net blotch); assay type: in vivo; conditions: 200 ppm, barley leaf segments cv. Hasso, inoculated 2 days after application, assessed 5-7 days after application
Method: Barley leaf segments cv. Hasso are placed on agar in a multiwell plate (24-well format) and sprayed with the formulated test compound diluted in water. The leaf segments are inoculated with a spore suspension of the fungus 2 days after application. The inoculated leaf segments are incubated at 20° C. and 65% rh under a light regime of 12 h light/12 h darkness in a climate cabinet and the activity of a compound is assessed as disease control compared to untreated when an appropriate level of disease damage appears in untreated check leaf segments (5-7 days after application).

Glomerella lagenarium = Glomerella lagenarium (Colletotrichum lagenarium)/liquid culture (anthracnose); assay type: cell-based; conditions: Colletotrichum orbiculare, liquid culture, PDB, 24° C., growth inhibition photometric 3-4 days after application, read-out: control of Glomerella lagenarium compared to untreated control
Method: as §1, with “measured” for “determined”, “3-4” for “4-5”

Phaeosphaeria nodorum = Phaeosphaeria nodorum (Septoria nodorum)/wheat/leaf disc preventative (glume blotch); assay type: in vivo; conditions: 200 ppm, wheat leaf segments cv. Kanzler, inoculated 2 days after application, assessed 5-7 days after application
Method: Wheat leaf segments cv. Kanzler are placed on agar in a multiwell plate (24-well format) and sprayed with the formulated test compound diluted in water. The leaf disks are inoculated with a spore suspension of the fungus 2 days after application. The inoculated test leaf disks are incubated at 20° C. and 75% rh under a light regime of 12 h light/12 h darkness in a climate cabinet and the activity of a compound is assessed as percent disease control compared to untreated when an appropriate level of disease damage appears in untreated check leaf disks (5-7 days after application).

Alternaria solani = assay: Alternaria solani/tomato/leaf disc (early blight); assay type: in vivo; conditions: 200 ppm; tomato leaf disks cv. Baby; inoculated 2 days after application; assessed 5-7 days after application
Method: Tomato leaf disks cv. Baby are placed on agar in multiwell plates (24-well format) and sprayed with the formulated test compound diluted in water. The leaf disks are inoculated with a spore suspension of the fungus 2 days after application. The inoculated leaf disks are incubated at 23° C./21° C. (day/night) and 80% rh under a light regime of 12/12 h (light/dark) in a climate cabinet and the activity of a compound is assessed as percent disease control compared to untreated when an appropriate level of disease damage appears on untreated check disk leaf disks (5-7 days after application).

Botryotinia fuckeliana = Botryotinia fuckeliana (Botrytis cinerea)/liquid culture (gray mould); assay type: cell-based; conditions: liquid culture, Vogels broth, 24° C., growth inhibition photometric 3-4 days after application, read-out: control of Botryotinia fuckeliana compared to untreated control
Method: as §1, with “(Vogels” for “(PDB potato dextrose”, “3-4” for “4-5”

Structure (SMILES)	inhibition of growth at 20 ppm [1] [%]	inhibition of growth at 20 ppm (Monographella nivalis) [%]	inhibition of growth at 20 ppm (Mycosphaerella arachidis) [%]	control of Pyrenophora teres compared to untreated control (Pyrenophora teres)	inhibition of growth at 20 ppm (Glomerella lagenarium) [%]	control of Phaeosphaeria nodorum compared to untreated control (Phaeosphaeria nodorum)	control of Alternaria solani compared to untreated control (Alternaria solani)	inhibition of growth at 20 ppm (Botryotinia fuckeliana) [%]
COc1ccc2c(c1)C(c1cnn(C)c1)CN(C(=O)c1nnn(-c3ccc(F)cc3F)n1)C2C (racemic) [Compound P-34, [2-(2,4-difluorophenyl)tetrazol-5-yl]-[6-methoxy-1-methyl-4-(1-methylpyrazol-4-yl)-3,4-dihydro-1H-isoquinolin-2-yl]methanone]	≥ 80	≥ 80	≥ 80					
Cc1c([C@H]2CN(C(=O)c3cnn(-c4ccc(F)cc4F)n3)[C@@H](C)c3ccccc32)cnn1C (racemic) [Compound P-40, [2-(2,4-difluorophenyl)triazol-4-yl]-[rac-(1S,4S)-4-(1,5-dimethylpyrazol-4-yl)-1-methyl-3,4-dihydro-1H-isoquinolin-2-yl]methanone]	≥ 80			at least 80%				
COc1ccc2c(c1)[C@H](c1cnn(C)c1)CN(C(=O)c1nnn(-c3ccccc3)n1)[C@@H]2C (single isomer, unassigned) [Compound P-36]	≥ 80	≥ 80	≥ 80					
COc1ccc2c(c1)[C@@H](c1cnn(C)c1)CN(C(=O)c1nnn(-c3ccc(F)cc3F)n1)[C@H]2C (single isomer, unassigned) [Compound P-38]	≥ 80	≥ 80	≥ 80					
Cc1nn(C)c(C)c1C1CN(C(=O)c2cn(-c3ccccc3)nn2)Cc2ccccc21 (stereo not shown) [Compound P-7, (1-phenyltriazol-4-yl)-[4-(1,3,5-trimethylpyrazol-4-yl)-3,4-dihydro-1H-isoquinolin-2-yl]methanone]	≥ 80		≥ 80					
Cn1cc(C2CN(C(=O)c3cn(-c4ccc(F)cc4F)nn3)Cc3ccccc32)cn1 (stereo not shown) [Compound P-8, [1-(2,4-difluorophenyl)triazol-4-yl]-[4-(1-methylpyrazol-4-yl)-3,4-dihydro-1H-isoquinolin-2-yl]methanone]				at least 80%				
Cn1cc(C2CN(C(=O)c3cn(-c4ccccc4)nn3)Cc3ccccc32)cn1 (stereo not shown) [Compound P-11, [4-(1-methylpyrazol-4-yl)-3,4-dihydro-1H-isoquinolin-2-yl]-(1-phenyltriazol-4-yl)methanone]	≥ 80				≥ 80			
Cn1cc(C2CN(C(=O)c3nnn(-c4ccccc4)n3)Cc3ccccc32)cn1 (stereo not shown) [Compound P-14, [4-(1-methylpyrazol-4-yl)-3,4-dihydro-1H-isoquinolin-2-yl]-(2-phenyltetrazol-5-yl)methanone]	≥ 80	≥ 80	≥ 80	at least 80%	≥ 80	at least 80%	at least 80%	≥ 80
Cn1cc(C2CN(C(=O)c3cnn(-c4ccc(F)cc4)n3)Cc3ccccc32)cn1 (stereo not shown) [Compound P-18, [2-(4-fluorophenyl)triazol-4-yl]-[4-(1-methylpyrazol-4-yl)-3,4-dihydro-1H-isoquinolin-2-yl]methanone]	≥ 80	≥ 80						
Cc1c(C2CN(C(=O)c3nnn(-c4ccc(F)cc4F)n3)Cc3ccccc32)cnn1C (stereo not shown) [Compound P-31, [2-(2,4-difluorophenyl)tetrazol-5-yl]-[4-(1,5-dimethylpyrazol-4-yl)-3,4-dihydro-1H-isoquinolin-2-yl]methanone]	≥ 80	≥ 80	≥ 80	at least 80%	≥ 80	at least 80%	at least 80%	≥ 80
Cn1cc(C2(C)CN(C(=O)c3nnn(-c4ccc(F)cc4F)n3)Cc3ccccc32)cn1 (stereo not shown) [Compound P-32, [2-(2,4-difluorophenyl)tetrazol-5-yl]-[4-methyl-4-(1-methylpyrazol-4-yl)-1,3-dihydroisoquinolin-2-yl]methanone]	≥ 80							
COc1ccc2c(c1)C(c1cnn(C)c1)CN(C(=O)c1nnn(-c3ccccc3)n1)C2C (stereo not shown) [Compound P-35, [6-methoxy-1-methyl-4-(1-methylpyrazol-4-yl)-3,4-dihydro-1H-isoquinolin-2-yl]-(2-phenyltetrazol-5-yl)methanone]	≥ 80	≥ 80	≥ 80	at least 80%	≥ 80			≥ 80
Cc1c([C@@H]2CN(C(=O)c3cn(-c4ncc(F)cc4F)nn3)[C@H](C)c3ccccc32)cnn1C [Compound P-44, [1-(3,5-difluoro-2-pyridyl)triazol-4-yl]-[(1R,4R)-4-(1,5-dimethylpyrazol-4-yl)-1-methyl-3,4-dihydro-1H-isoquinolin-2-yl]methanone]	≥ 80		≥ 80		≥ 80			
C[C@H]1c2ccccc2[C@@H](c2cnn(C)c2Cl)CN1C(=O)c1cnn(-c2ccc(F)cc2F)n1 [Compound P-45, [(1S,4S)-4-(5-chloro-1-methyl-pyrazol-4-yl)-1-methyl-3,4-dihydro-1H-isoquinolin-2-yl]-[2-(2,4-difluorophenyl)triazol-4-yl]methanone]	≥ 80							
C[C@@H]1c2ccccc2[C@H](c2cnn(C)c2Cl)CN1C(=O)c1cn(-c2ccc(F)cc2F)nn1 [Compound P-47, [(1R,4R)-4-(5-chloro-1-methyl-pyrazol-4-yl)-1-methyl-3,4-dihydro-1H-isoquinolin-2-yl]-[1-(2,4-difluorophenyl)triazol-4-yl]methanone]	≥ 80		≥ 80					
C[C@@H]1c2ccccc2[C@H](c2cnn(C)c2Cl)CN1C(=O)c1nnn(-c2ccc(F)cc2F)n1 [Compound P-50, [(1R,4R)-4-(5-chloro-1-methyl-pyrazol-4-yl)-1-methyl-3,4-dihydro-1H-isoquinolin-2-yl]-[2-(2,4-difluorophenyl)tetrazol-5-yl]methanone]	≥ 80							
Cc1c(C2CN(C(=O)c3cn(-c4ncc(F)cc4F)nn3)Cc3ccccc32)cnn1C (stereo not shown) [Compound P-57, [1-(3,5-difluoro-2-pyridyl)triazol-4-yl]-[4-(1,5-dimethylpyrazol-4-yl)-3,4-dihydro-1H-isoquinolin-2-yl]methanone]	≥ 80			at least 80%		at least 80%	at least 80%	
